According to ChEMBL document CHEMBL5346925, “3,4-Dihydrobenzo[e][1,2,3]oxathiazine 2,2-dioxide analogs act as potential AMPA receptor potentiators with antidepressant activity” (Eur J Med Chem, 2023):

Tested on: not listed separately
Experiment: Cmax in Sprague-Dawley rat at 3 mg/kg, po by LC-MS/MS analysis
Assay type: ADME, organism-based
Set-up: dose 3 mg/kg, route po
Conditions: in vivo

Row | Compound | Cmax
1 | O=S1(=O)NCc2cccc(-c3ccc(Oc4ccccc4)cc3)c2O1 | 96.1 ng/mL

Tested on: not listed separately
Experiment: AUC (0 to infinity) in Sprague-Dawley rat at 3 mg/kg, po by LC-MS/MS analysis
Assay type: ADME, organism-based
Set-up: dose 3 mg/kg, route po
Conditions: in vivo

Row | Compound | AUC(0-inf)
2 | O=S1(=O)NCc2cccc(-c3ccc(Oc4ccccc4)cc3)c2O1 | 328 ng·h/mL

Tested on: not listed separately
Experiment: Half life in Sprague-Dawley rat at 0.3 mg/kg, iv by LC-MS/MS analysis
Assay type: ADME, organism-based
Conditions: in vivo

Row | Compound | half-life
3 | O=S1(=O)NCc2cccc(-c3ccc(Oc4ccccc4)cc3)c2O1 | 1.27 h

Target: T1, Glutamate receptor ionotropic, AMPA (Rattus norvegicus) (UniProt P19491+P19492+P19493+P19490)
Experiment: Agonist activity at AMPA receptor in rat Primary neuron cells assessed as increase in fluorescence level at 1 uM incubated for 1 hr by calcium 2+ influx assay relative to s-AMPA coupled TAK-137
Assay type: cell-based
Conditions: not given

Row | Compound | Activity
4 | O=S1(=O)NCc2ccc(-c3ccc(Oc4ccccc4)cc3)cc2O1 | 0.7%
5 | O=S1(=O)NCc2cccc(-c3ccc(-c4ccc(F)cc4)cc3)c2O1 | 8.1%
6 | O=S1(=O)NCc2cccc(-c3cccc(Oc4ccccc4)c3)c2O1 | 1%
7 | COc1ccc(-c2ccc(-c3cccc4c3OS(=O)(=O)NC4)cc2)cc1 | -3.7%
8 | O=S1(=O)NCc2cccc(-c3ccccc3Oc3ccccc3)c2O1 | -0.5%
9 | COc1cccc(-c2ccc(-c3cccc4c3OS(=O)(=O)NC4C)cc2)c1 (configuration not stated) | 4.2%
10 | N#Cc1ccc(-c2cccc3c2OS(=O)(=O)NC3)cc1 | 2.9%
11 | O=S1(=O)NCc2c(cccc2-c2ccc(Oc3ccccc3)cc2)O1 | 0.8%
12 | CC(C)Oc1ccc(-c2ccc(-c3cccc4c3OS(=O)(=O)NC4)cc2)cc1 | -2.1%
13 | CC1NS(=O)(=O)Oc2c(-c3ccc(-c4cccc(F)c4)cc3)cccc21 (configuration not stated) | 8.6%
14 | COc1ccccc1-c1ccc(-c2cccc3c2OS(=O)(=O)NC3C)cc1 (configuration not stated) | 8.5%
15 | O=S1(=O)NCc2cccc(-c3ccc4c(c3)OCCO4)c2O1 | 19.5%
16 | O=S1(=O)NCc2cccc(-c3ccc(-c4cccc(F)c4)cc3)c2O1 | 3.5%
17 | O=S1(=O)NCc2cccc(-c3ccc(Oc4ccccc4)cc3)c2O1 | 4.1%

Further lines, results first:

Row | Activity | Compound
18 | 5.3% | COc1ccc(-c2ccc(-c3cccc4c3OS(=O)(=O)NC4)cc2F)cc1
19 | 3.1% | COc1c(C)cc(-c2cccc3c2OS(=O)(=O)NC3)cc1C
20 | 1% | COc1ccc(-c2cccc3c2OS(=O)(=O)NC3)cc1
21 | 13.2% | CC(C)Oc1ccc(-c2cccc3c2OS(=O)(=O)NC3)cc1
22 | 19.2% | COc1ccc(-c2cccc3c2OS(=O)(=O)NC3)cc1F
23 | 8.2% | COc1ccc(-c2cccc3c2OS(=O)(=O)NC3)c(F)c1
24 | 6.3% | Cc1ccc(-c2ccc(-c3cccc4c3OS(=O)(=O)NC4)cc2F)cc1
25 | 1.9% | COc1ccc(-c2cccc3c2OS(=O)(=O)NC3)cc1C(F)(F)F

Target: T1, Glutamate receptor ionotropic, AMPA (Rattus norvegicus)
Experiment: Agonist activity at AMPA receptor in rat Primary neuron cells assessed as potentiation of s-AMPA induced calcium flux at 1 uM incubated for 1 hr by calcium 2+ influx assay relative to s-AMPA coupled TAK-137
Assay type: cell-based
Conditions: not given

Row | Compound | Activity
26 | O=S1(=O)NCc2ccc(-c3ccc(Oc4ccccc4)cc3)cc2O1 | -0.8%
27 | O=S1(=O)NCc2cccc(-c3cccc(Oc4ccccc4)c3)c2O1 | 1.9%
28 | O=S1(=O)NCc2cccc(-c3ccccc3Oc3ccccc3)c2O1 | 1%
29 | N#Cc1ccc(-c2cccc3c2OS(=O)(=O)NC3)cc1 | 23.7%
30 | O=S1(=O)NCc2c(cccc2-c2ccc(Oc3ccccc3)cc2)O1 | 0%
31 | CC(C)Oc1ccc(-c2ccc(-c3cccc4c3OS(=O)(=O)NC4)cc2)cc1 | 3%

Results, then the compound that gave them:

Row | Activity | Compound
32 | 2.6% | COc1c(C)cc(-c2cccc3c2OS(=O)(=O)NC3)cc1C
33 | 10.3% | COc1ccc(-c2cccc3c2OS(=O)(=O)NC3)c(F)c1
34 | 37.7% | Cc1ccc(-c2ccc(-c3cccc4c3OS(=O)(=O)NC4)cc2F)cc1
35 | 0.6% | COc1ccc(-c2cccc3c2OS(=O)(=O)NC3)cc1C(F)(F)F

Same assay, conditions: filed as agonist

Row | Compound | Activity
36 | O=S1(=O)NCc2cccc(-c3ccc(-c4ccc(F)cc4)cc3)c2O1 | 85.3%
37 | COc1ccc(-c2ccc(-c3cccc4c3OS(=O)(=O)NC4)cc2)cc1 | 82.4%
38 | COc1cccc(-c2ccc(-c3cccc4c3OS(=O)(=O)NC4C)cc2)c1 (configuration not stated) | 58.5%
39 | CC1NS(=O)(=O)Oc2c(-c3ccc(-c4cccc(F)c4)cc3)cccc21 (configuration not stated) | 62.4%
40 | COc1ccccc1-c1ccc(-c2cccc3c2OS(=O)(=O)NC3C)cc1 (configuration not stated) | 65.5%
41 | O=S1(=O)NCc2cccc(-c3ccc4c(c3)OCCO4)c2O1 | 90.7%
42 | O=S1(=O)NCc2cccc(-c3ccc(-c4cccc(F)c4)cc3)c2O1 | 72.1%
43 | O=S1(=O)NCc2cccc(-c3ccc(Oc4ccccc4)cc3)c2O1 | 77.3%

Second part, the compound after the results:

Row | Activity | Compound
44 | 55.8% | COc1ccc(-c2ccc(-c3cccc4c3OS(=O)(=O)NC4)cc2F)cc1
45 | 89.3% | COc1ccc(-c2cccc3c2OS(=O)(=O)NC3)cc1
46 | 107% | CC(C)Oc1ccc(-c2cccc3c2OS(=O)(=O)NC3)cc1
47 | 98.4% | COc1ccc(-c2cccc3c2OS(=O)(=O)NC3)cc1F

Tested on: not listed separately
Experiment: Oral bioavailability in Sprague-Dawley rat at 3 mg/kg by LC-MS/MS analysis
Assay type: ADME, organism-based
Conditions: in vivo

Row | Compound | bioavailability
48 | O=S1(=O)NCc2cccc(-c3ccc(Oc4ccccc4)cc3)c2O1 | 19.8%

Tested on: not listed separately
Experiment: AUC (0 to infinity) in Sprague-Dawley rat at 0.3 mg/kg, iv by LC-MS/MS analysis
Assay type: ADME, organism-based
Set-up: dose 0.3 mg/kg, route iv
Conditions: in vivo

Row | Compound | AUC(0-inf)
49 | O=S1(=O)NCc2cccc(-c3ccc(Oc4ccccc4)cc3)c2O1 | 136 ng·h/mL

Tested on: not listed separately
Experiment: AUC (0 to t) in Sprague-Dawley rat at 3 mg/kg, po by LC-MS/MS analysis
Assay type: ADME, organism-based
Set-up: dose 3 mg/kg, route po
Conditions: in vivo

Row | Compound | AUC(0-t)
50 | O=S1(=O)NCc2cccc(-c3ccc(Oc4ccccc4)cc3)c2O1 | 265 ng·h/mL

Tested on: not listed separately
Experiment: MRT (0 to infinity) in Sprague-Dawley rat at 3 mg/kg, po by LC-MS/MS analysis
Assay type: ADME, organism-based
Conditions: in vivo

Row | Compound | MRT inf
51 | O=S1(=O)NCc2cccc(-c3ccc(Oc4ccccc4)cc3)c2O1 | 4.56 h

Tested on: not listed separately
Experiment: Clearance in Sprague-Dawley rat at 0.3 mg/kg, iv by LC-MS/MS analysis
Assay type: ADME, organism-based
Conditions: in vivo

Row | Compound | clearance
52 | O=S1(=O)NCc2cccc(-c3ccc(Oc4ccccc4)cc3)c2O1 | 37.4 mL/min/kg

Tested on: not listed separately
Experiment: MRT (0 to t) in Sprague-Dawley rat at 3 mg/kg, po by LC-MS/MS analysis
Assay type: ADME, organism-based
Conditions: in vivo

Row | Compound | MRT last
53 | O=S1(=O)NCc2cccc(-c3ccc(Oc4ccccc4)cc3)c2O1 | 2.63 h

Tested on: not listed separately
Experiment: Tmax in Sprague-Dawley rat at 3 mg/kg, po by LC-MS/MS analysis
Assay type: ADME, organism-based
Conditions: in vivo

Row | Compound | Tmax
54 | O=S1(=O)NCc2cccc(-c3ccc(Oc4ccccc4)cc3)c2O1 | 0.5 h

Tested on: not listed separately
Experiment: AUC (0 to t) in Sprague-Dawley rat at 0.3 mg/kg, iv by LC-MS/MS analysis
Assay type: ADME, organism-based
Set-up: dose 0.3 mg/kg, route iv
Conditions: in vivo

Row | Compound | AUC(0-t)
55 | O=S1(=O)NCc2cccc(-c3ccc(Oc4ccccc4)cc3)c2O1 | 134 ng·h/mL

Tested on: not listed separately
Experiment: Volume of distribution at steady state in Sprague-Dawley rat at 0.3 mg/kg, iv by LC-MS/MS analysis
Assay type: ADME, organism-based
Conditions: in vivo, read-out: Vdss

Row | Compound | Vd
56 | O=S1(=O)NCc2cccc(-c3ccc(Oc4ccccc4)cc3)c2O1 | 1.79 L/kg

Tested on: not listed separately
Experiment: Tmax in Sprague-Dawley rat at 0.3 mg/kg, iv by LC-MS/MS analysis
Assay type: ADME, organism-based
Conditions: in vivo

Row | Compound | Tmax
57 | O=S1(=O)NCc2cccc(-c3ccc(Oc4ccccc4)cc3)c2O1 | 4.8 min

Target: Glutamate receptor ionotropic, AMPA (Rattus norvegicus, UniProt P19490+P19491+P19492+P19493)
Experiment: Agonist activity at AMPA receptor in rat Primary neuron cells
Assay type: cell-based
Conditions: not given

Row | Compound | EC50
58 | COc1ccc(-c2ccc(-c3cccc4c3OS(=O)(=O)NC4)cc2)cc1 | 1240 nM
59 | COc1ccc(-c2cccc3c2OS(=O)(=O)NC3)cc1 | 555 nM
60 | O=S1(=O)NCc2cccc(-c3ccc(Oc4ccccc4)cc3)c2O1 | 1630 nM

Tested on: not listed separately
Experiment: MRT (0 to infinity) in Sprague-Dawley rat at 0.3 mg/kg, iv by LC-MS/MS analysis
Assay type: ADME, organism-based
Conditions: in vivo

Row | Compound | MRT inf
61 | O=S1(=O)NCc2cccc(-c3ccc(Oc4ccccc4)cc3)c2O1 | 0.81 h

Target: T1, Glutamate receptor ionotropic, AMPA (Rattus norvegicus)
Experiment: Agonist activity at AMPA receptor in rat Primary neuron cells relative to control
Assay type: cell-based
Conditions: filed as agonist

Row | Compound | Emax
62 | COc1ccc(-c2ccc(-c3cccc4c3OS(=O)(=O)NC4)cc2)cc1 | 79%
63 | COc1ccc(-c2cccc3c2OS(=O)(=O)NC3)cc1 | 99%
64 | O=S1(=O)NCc2cccc(-c3ccc(Oc4ccccc4)cc3)c2O1 | 169%

Tested on: not listed separately
Experiment: Cmax in Sprague-Dawley rat at 0.3 mg/kg, iv by LC-MS/MS analysis
Assay type: ADME, organism-based
Set-up: dose 0.3 mg/kg, route iv
Conditions: in vivo

Row | Compound | Cmax
65 | O=S1(=O)NCc2cccc(-c3ccc(Oc4ccccc4)cc3)c2O1 | 246 ng/mL

Tested on: not listed separately
Experiment: MRT (0 to t) in Sprague-Dawley rat at 0.3 mg/kg, iv by LC-MS/MS analysis
Assay type: ADME, organism-based
Conditions: in vivo

Row | Compound | MRT last
66 | O=S1(=O)NCc2cccc(-c3ccc(Oc4ccccc4)cc3)c2O1 | 0.7 h

Tested on: not listed separately
Experiment: Half life in Sprague-Dawley rat at 3 mg/kg, po by LC-MS/MS analysis
Assay type: ADME, organism-based
Conditions: in vivo

Row | Compound | half-life
67 | O=S1(=O)NCc2cccc(-c3ccc(Oc4ccccc4)cc3)c2O1 | 3.12 h
